Results published in publication PMC2362906, “Effects of new 17α-hydroxylase/C17,20-lyase inhibitors on LNCaP prostate cancer cell growth in vitro and in vivo” (British Journal of Cancer, 1999).

Legend:
[1] = test system: LNCaP cells; test: DHT-stimulated wild-type LNCaP cell growth; format: cell-based, human; details: 0.03 nM DHT, 9 days
Description: (§1) Prostate cancer is the most common malignancy and the second leading cause of cancer-related deaths among men in the US and the UK (Shibata et al, 1998). […] Steroidal 17-hydroxylase/C17,20 -lyase (P450c17) (EC 1.14.99.0) was selected as the target enzyme for inhibition, as this is a key regulatory enzyme of androgen synthesis. P450c17 catal- yses two sequential reactions in the steroid biosynthetic pathway and converts pregnenolone and progesterone to the C-19 andro- gens, dehydroepiandrosterone and androstenedione respectively. This enzyme has an identical amino acid sequence in testicular and adrenal tissues (Chung et al, 1987). […] In order to evaluate the effectiveness of these inhibitors we developed a multi-step system, which utilized the LNCaP human prostate cancer cell line. LNCaP cells remain the only androgen receptor (AR)-positive prostate cancer cell line, that can be readily grown in tissue culture (Horoszewicz et al, 1983). These cells respond to androgens with increased cell proliferation and elevated expression of prostate specific antigen (PSA) (Berns et al, 1993). LNCaP cells at early passages are not only androgen-responsive, but also androgen- dependent (Pousette et al, 1997). This is similar to the situation in most tumours of prostatic cancer patients, which are initially highly responsive and dependent on androgens. […] Therefore, we employed LNCaP cells as a model for evaluating the effectiveness of our new inhibitors of androgen synthesis. In this study the compounds selected for evaluation were two groups of azolyl steroids. […] Here we report on the application of LNCaP-CYP17-transfected cells for determining the inhibitory potencies of the new compounds against the P450c17 enzyme. […] We designed and evaluated two groups of azolyl steroids: 5-non-competitive inhibitors (5NCIs), VN/63-1, VN/85-1, VN/87-1 and their corresponding 4 derivatives (4NCIs), VN/107-1, VN/108-1 and VN/109-1. The human P450c17 gene was transfected into LNCaP human prostate cancer cells, and the resultant LNCaP- CYP17 cells were utilized to evaluate the inhibitory potency of the new azolyl steroids. […] We further evaluated our inhibitors in male severe combined immuno- deficient mice bearing LNCaP tumour xenografts. […] We also utilized wild-type LNCaP prostatic carcinoma cells for evaluating the direct effects of new azolyl steroids on proliferation of these cells in vitro and in vivo. MATERIALS AND METHODS Materials The human prostate cancer cell line LNCaP was obtained from the American Type Culture Collection (Rockville, MD, USA). RPMI- 1640 medium, trypsin-EDTA (0.25%/0.02%), penicillin/strepto- mycin (P/S), geniticin (G418), and LipofectAMINE were from Gibco-BRL (Grand Island, NY, USA). Fetal bovine serum (FBS) was obtained from Summit Biotechnology Inc. (Fort Collins, CO, USA) and steroid-free FBS was prepared as described previously (Klus et al, 1996). Phenol red free IMEM and trypsin-versine were purchased from Biofluids Inc. (Rockville, MD, USA). Chloroform and acetonitrile were purchased from JT Baker, Inc (Phillipsburg, NJ, USA). Hydroxypropyl cellulose (HPC) was purchased from Sigma Chemical Co. (St Louis, MO, USA). The PSA enzyme- linked immunusorbent assay (ELISA) kit was from DSL Inc. (Webster, TX, USA). Matrigel was generously supplied by Dr Hynda Kleinman (NIH, Bethesda, MD, USA). Inhibitors of androgen synthesis: VN/63-1, VN/85-1, VN/87-1, VN/107-1, VN/108-1 and VN/109-1 were synthesized in our labo- ratory as previously described (Njar et al, 1998). […] Metribolone [17-methyl-3 H]-R1881 ([3 H]-R1881: specific activity 86 Ci mmol-1 ) was purchased from Dupont NEN (Boston, MA, USA).

[2] = molecular target: T1, human 17α-hydroxylase/C17,20-lyase (P450c17) expressed in LNCaP-CYP17 cells (Homo sapiens, UniProt P05093); test: [3H]-acetic acid releasing assay (AARA) with LNCaP-CYP17 cells; format: cell-based; details: LNCaP-CYP17 cells, 7 μM [21-3H]17-OHP5, 16 h; mean ± s.e.m., three experiments
T1 sequence (P05093 9-508 limits assumed): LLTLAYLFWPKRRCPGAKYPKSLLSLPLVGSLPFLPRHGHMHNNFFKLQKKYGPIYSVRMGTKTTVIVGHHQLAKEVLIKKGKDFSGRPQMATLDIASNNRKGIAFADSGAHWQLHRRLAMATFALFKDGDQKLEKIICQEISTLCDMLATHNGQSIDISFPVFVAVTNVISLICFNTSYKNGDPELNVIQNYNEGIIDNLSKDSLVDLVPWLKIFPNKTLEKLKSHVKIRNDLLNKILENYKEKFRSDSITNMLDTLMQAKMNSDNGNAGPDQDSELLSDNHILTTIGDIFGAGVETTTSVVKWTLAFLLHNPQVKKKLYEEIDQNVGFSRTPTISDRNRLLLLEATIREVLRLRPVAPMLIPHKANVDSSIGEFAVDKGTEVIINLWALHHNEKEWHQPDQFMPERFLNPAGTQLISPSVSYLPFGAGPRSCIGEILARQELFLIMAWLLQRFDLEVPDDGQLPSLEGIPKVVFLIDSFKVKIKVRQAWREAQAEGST

[3] = test system: LNCaP cells; test: LNCaP cell growth in steroid-free medium; format: cell-based, human
Description: Prostate cancer is the most common malignancy and the second leading cause of cancer-related deaths among men in the US and the UK (Shibata et al, 1998). […] Steroidal 17-hydroxylase/C17,20 -lyase (P450c17) (EC 1.14.99.0) was selected as the target enzyme for inhibition, as this is a key regulatory enzyme of androgen synthesis. P450c17 catal- yses two sequential reactions in the steroid biosynthetic pathway and converts pregnenolone and progesterone to the C-19 andro- gens, dehydroepiandrosterone and androstenedione respectively. This enzyme has an identical amino acid sequence in testicular and adrenal tissues (Chung et al, 1987). […] In order to evaluate the effectiveness of these inhibitors we developed a multi-step system, which utilized the LNCaP human prostate cancer cell line. LNCaP cells remain the only androgen receptor (AR)-positive prostate cancer cell line, that can be readily grown in tissue culture (Horoszewicz et al, 1983). These cells respond to androgens with increased cell proliferation and elevated expression of prostate specific antigen (PSA) (Berns et al, 1993). LNCaP cells at early passages are not only androgen-responsive, but also androgen- dependent (Pousette et al, 1997). This is similar to the situation in most tumours of prostatic cancer patients, which are initially highly responsive and dependent on androgens. […] Therefore, we employed LNCaP cells as a model for evaluating the effectiveness of our new inhibitors of androgen synthesis. In this study the compounds selected for evaluation were two groups of azolyl steroids. […] Here we report on the application of LNCaP-CYP17-transfected cells for determining the inhibitory potencies of the new compounds against the P450c17 enzyme. […] We designed and evaluated two groups of azolyl steroids: 5-non-competitive inhibitors (5NCIs), VN/63-1, VN/85-1, VN/87-1 and their corresponding 4 derivatives (4NCIs), VN/107-1, VN/108-1 and VN/109-1. The human P450c17 gene was transfected into LNCaP human prostate cancer cells, and the resultant LNCaP- CYP17 cells were utilized to evaluate the inhibitory potency of the new azolyl steroids. […] We further evaluated our inhibitors in male severe combined immuno- deficient mice bearing LNCaP tumour xenografts. […] We also utilized wild-type LNCaP prostatic carcinoma cells for evaluating the direct effects of new azolyl steroids on proliferation of these cells in vitro and in vivo. MATERIALS AND METHODS Materials The human prostate cancer cell line LNCaP was obtained from the American Type Culture Collection (Rockville, MD, USA). RPMI- 1640 medium, trypsin-EDTA (0.25%/0.02%), penicillin/strepto- mycin (P/S), geniticin (G418), and LipofectAMINE were from Gibco-BRL (Grand Island, NY, USA). […]

[4] = test system: LNCaP tumour xenografts; test: LNCaP tumour xenograft growth in male SCID mice; format: in vivo; details: 50 mg kg-1 day-1, 28 days
Description: as §1

[5] = test system: serum PSA; test: Serum PSA (ELISA) in LNCaP tumour-bearing SCID mice; format: in vivo, male SCID mice; details: 50 mg kg-1 day-1, 28 days
Description: Prostate cancer is the most common malignancy and the second leading cause of cancer-related deaths among men in the US and the UK (Shibata et al, 1998). […] Steroidal 17-hydroxylase/C17,20 -lyase (P450c17) (EC 1.14.99.0) was selected as the target enzyme for inhibition, as this is a key regulatory enzyme of androgen synthesis. P450c17 catal- yses two sequential reactions in the steroid biosynthetic pathway and converts pregnenolone and progesterone to the C-19 andro- gens, dehydroepiandrosterone and androstenedione respectively. This enzyme has an identical amino acid sequence in testicular and adrenal tissues (Chung et al, 1987). […] In order to evaluate the effectiveness of these inhibitors we developed a multi-step system, which utilized the LNCaP human prostate cancer cell line. LNCaP cells remain the only androgen receptor (AR)-positive prostate cancer cell line, that can be readily grown in tissue culture (Horoszewicz et al, 1983). These cells respond to androgens with increased cell proliferation and elevated expression of prostate specific antigen (PSA) (Berns et al, 1993). LNCaP cells at early passages are not only androgen-responsive, but also androgen- dependent (Pousette et al, 1997). This is similar to the situation in most tumours of prostatic cancer patients, which are initially highly responsive and dependent on androgens. […] Therefore, we employed LNCaP cells as a model for evaluating the effectiveness of our new inhibitors of androgen synthesis. In this study the compounds selected for evaluation were two groups of azolyl steroids. […] Here we report on the application of LNCaP-CYP17-transfected cells for determining the inhibitory potencies of the new compounds against the P450c17 enzyme. […] We designed and evaluated two groups of azolyl steroids: 5-non-competitive inhibitors (5NCIs), VN/63-1, VN/85-1, VN/87-1 and their corresponding 4 derivatives (4NCIs), VN/107-1, VN/108-1 and VN/109-1. The human P450c17 gene was transfected into LNCaP human prostate cancer cells, and the resultant LNCaP- CYP17 cells were utilized to evaluate the inhibitory potency of the new azolyl steroids. […] We further evaluated our inhibitors in male severe combined immuno- deficient mice bearing LNCaP tumour xenografts. […] We also utilized wild-type LNCaP prostatic carcinoma cells for evaluating the direct effects of new azolyl steroids on proliferation of these cells in vitro and in vivo. MATERIALS AND METHODS Materials The human prostate cancer cell line LNCaP was obtained from the American Type Culture Collection (Rockville, MD, USA). RPMI- 1640 medium, trypsin-EDTA (0.25%/0.02%), penicillin/strepto- mycin (P/S), geniticin (G418), and LipofectAMINE were from Gibco-BRL (Grand Island, NY, USA). Fetal bovine serum (FBS) was obtained from Summit Biotechnology Inc. (Fort Collins, CO, USA) and steroid-free FBS was prepared as described previously (Klus et al, 1996). Phenol red free IMEM and trypsin-versine were purchased from Biofluids Inc. (Rockville, MD, USA). Chloroform and acetonitrile were purchased from JT Baker, Inc (Phillipsburg, NJ, USA). Hydroxypropyl cellulose (HPC) was purchased from Sigma Chemical Co. (St Louis, MO, USA). The PSA enzyme- linked immunusorbent assay (ELISA) kit was from DSL Inc. (Webster, TX, USA). Matrigel was generously supplied by Dr Hynda Kleinman (NIH, Bethesda, MD, USA). […]

[6] = test system: serum testosterone; test: Serum testosterone (RIA) in SCID mice; format: in vivo, male SCID mice; details: 28 days of treatment, 50 mg kg-1 day-1
Description: as §1

[7] = test system: serum DHT; test: Serum DHT (RIA) in SCID mice; format: in vivo, male SCID mice; details: 28 days of treatment, 50 mg kg-1 day-1
Description: as §1

[8] = molecular target: human prostatic 5-reductase; parameters: method as in Njar et al, 1998; details: human prostatic microsomes; reported previously; ref Njar et al, 1998; cited from earlier work
[9] = test system: LNCaP cells; test: Testosterone-stimulated wild-type LNCaP cell growth; format: cell-based, human; details: 0.1 nM testosterone; for Effect on testosterone-stimulated cell growth (words): 0.5-5.0 μM compound
Description: as §1

[10] = Table 2, first experiment, control 1.043
[11] = Table 3, second experiment, control 0.205
[12] = Table 2, first experiment, control 243.8
[13] = Table 3, second experiment, control 239.2

SMILES | IC50 [2] [µM] | Serum Testosterone [6, 10] [ng/mL] | Serum Testosterone [6, 11] [ng/mL] | Serum DHT [7, 12] [pg/mL] | Serum DHT [7, 13] [pg/mL] | IC50 [8] [µM] | Stimulation of cell growth compared to DHT-treated cells [1] | further results
C[C@]12CCC(=O)C[C@@H]1CC[C@@H]1[C@@H]2CC[C@]2(C)[C@@H](O)CC[C@@H]12 [DHT, Dihydrotestosterone, reference compound] | – | – | – | – | – | – | – | Stimulation of LNCaP cell proliferation compared to vehicle-treated cells [1]: 3.2 fold
CC(C)(C)NC(=O)[C@H]1CC[C@H]2[C@@H]3CC[C@H]4NC(=O)C=C[C@]4(C)[C@H]3CC[C@]12C [Finasteride, reference compound] | > 5 | 1.389 | 0.638 | 137.0 | 223.4 | 0.033 | – | inhibition at 5 µM ([3]; Homo sapiens, LNCaP, 5 μM concentration): 25%; Inhibition of LNCaP cell growth in steroid-free media ([3]; concentrations of 1.0-5.0 μM, 9 days): 20-30%; Reduction of tumour weights compared to vehicle-treated mice ([4]; first experiment): 22%; Inhibition of LNCaP tumour growth (tumour volume) ([4]; second experiment): 29%; Reduction of tumour weights ([4]; second experiment): 28%; Serum PSA levels versus control ([5]; first experiment): significantly lower; Serum PSA levels versus control ([5]; second experiment): significantly lower
CC(C)C(=O)Nc1ccc([N+](=O)[O-])c(C(F)(F)F)c1 [Flutamide, reference compound] | > 5 | – | – | – | – | – | 10-20% | Inhibition of testosterone stimulated cell growth ([9]; compound at 2.5 and 5.0 μM): ~ 50%
CC(=O)N1CCN(c2ccc(OCC3COC(Cn4ccnc4)(c4ccc(Cl)cc4Cl)O3)cc2)CC1 (stereo not shown) [Ketoconazole, reference compound] | – | 1.526 | 0.298 | 224.3 | 218.0 | > 5 | 10-20% | Effect on testosterone-stimulated cell growth (words) ([9]; 9 days): stimulate cell proliferation at low concentrations; Effect on testosterone-stimulated cell growth (words) ([9]; 9 days, listed as ketoconazole): biphasic growth responses; Stimulation of LNCaP cell growth in steroid-free media ([3]; high concentrations (2.5 and 5.0 μM), 9 days): 30-40%; Effect on tumour growth (words) ([4]; second experiment): Neither VN/63-1, VN/107 nor ketoconazole had any appreciable effects
C[C@]12CC[C@H]3[C@@H](CCC4=CC(=O)CC[C@@]43C)[C@@H]1CC[C@@H]2O [Testosterone, reference compound] | – | – | – | – | – | – | – | Stimulation of LNCaP cell proliferation compared to vehicle-treated control cells ([9]; 9 days): 5.8 fold
